Experiments:
[1] = test system: Bilirubin Total; assay: Example 5: postbaseline hepatic laboratory parameter values of clinical interest, Bilirubin Total; assay type: in vivo, human; details: safety population
Description: This study consisted of a 4-week screening and baseline period and a 12-week double-blind treatment period, which was followed by a 4-week safety follow-up period. Total study duration is 20-weeks.
To be randomized, eligible patients had to be 18 to 75 years of age (inclusive), have a history of migraine with or without aura for at least 1 year consistent with a diagnosis according to the International Classification of Headache Disorders criteria, 3rd edition, beta version, have experienced 4 to 14 migraine/probable migraine headache days and <15 headache days in the 28-day baseline period. Patients who had clinically significant hematologic, endocrine, cardiovascular, cerebrovascular, pulmonary, renal, hepatic, gastrointestinal, or neurologic disease were excluded from the study.
A total of 834 patients were randomized to double-blind treatment (ITT population), and 825 patients took at least 1 dose of double-blind IP (safety population). […] The primary efficacy variable was the change from baseline in mean monthly migraine/probable migraine headache days across the 12-week treatment period. The secondary efficacy variables were the change from baseline in mean monthly headache days across the 12-week treatment period, proportion of patients with at least a 50% reduction in mean monthly migraine/probable migraine headache days across the 12-week treatment period, and the change from baseline in mean monthly acute medication use days across the 12-week treatment period.

[2] = Atogepant oral pharmacokinetics; assay type: in vivo; details: administered orally
[3] = test system: participants with episodic migraine; assay: Study C: 40-week open-label extension, safety and tolerability of atogepant 60 mg once daily; assay type: in vivo, human
Procedure: An open-label extension study for trial completers evaluated the long-term safety and tolerability of oral atogepant 60 mg daily for the prevention of migraine in participants with episodic migraine.
Participants in this trial (Study C) rolled over from the lead in trial (Study A) and were treated with atogepant 60 mg once daily for 40-weeks, with a 4-week safety follow-up period. Only safety data were collected.
Of 695 participants screened, a total of 685 participants took at least one dose of study medication and were included in the safety population. Overall, the mean age was 41.8 years. Female participants accounted for 88.2% of the Safety Population. White and Black or African American patients accounted for 84.4% and 12.6%, respectively. Mean BMI was 30.58 kg/m2.

[4] = test system: participants with episodic migraine; assay: Study B: adverse events (atogepant 60 mg QD vs oral standard of care); assay type: in vivo, human
Procedure: Study B: A phase 3, multicenter, randomized, open label study was conducted to evaluate the long-term safety and tolerability of oral atogepant for the prevention of migraine in participants with episodic migraine (Study B). The study objective was to evaluate the safety and tolerability of daily treatment with atogepant 60 mg QD when administered over 52 weeks for the prevention of migraine in participants with episodic migraine.
A total of 744 participants from 106 sites were randomized in a ratio of 5:2 to the following treatment groups: atogepant 60 mg QD or oral standard of care (SOC) migraine prevention medication. The latter arm was included to contextualize safety data from the atogepant-treated participants, and efficacy measures were collected from the atogepant arm only. Efficacy measures were evaluated using the modified intent-to-treat (mITT) population and a mixed-effects model for repeated measures and included changes from baseline in monthly migraine days (MDDs), moderate/severe headache days, and acute medication use days, as well as the proportion of responders based on reductions in MMDs.
Regardless of which of these options was chosen, the participant was allowed to continue in the study. […]

[5] = Atogepant 60 mg QD, Safety Population N = 685

## C[C@@H]1[C@H](c2c(F)ccc(F)c2F)C[C@H](NC(=O)c2cnc3c(c2)C[C@@]2(C3)C(=O)Nc3ncccc32)C(=O)N1CC(F)(F)F [atogepant]
[1]; Atogepant 10 mg QD (N = 93)
  Participants with postbaseline Bilirubin Total (umol/L) >=1 * ULN, (%): (3.3) %
  Participants with postbaseline Bilirubin Total (umol/L) >=1 * ULN, n/N1: 3/92
  Participants with postbaseline Bilirubin Total (umol/L) >=1.5 * ULN, (%): (1.1) %
  Participants with postbaseline Bilirubin Total (umol/L) >=1.5 * ULN, n/N1: 1/92
  Participants with postbaseline Bilirubin Total (umol/L) >=2 * ULN, n/N1: 0
  Participants with postbaseline Bilirubin Total (umol/L) >=3 * ULN, n/N1: 0
  Participants with postbaseline Bilirubin Total (umol/L) >=5 * ULN, n/N1: 0
  Participants with postbaseline Bilirubin Total (umol/L) >=10 * ULN, n/N1: 0
  Participants with postbaseline Bilirubin Total (umol/L) >=20 * ULN, n/N1: 0
[1]; Atogepant 30 mg BID (N = 86)
  Participants with postbaseline Bilirubin Total (umol/L) >=1 * ULN, (%): (3.6) %
  Participants with postbaseline Bilirubin Total (umol/L) >=1 * ULN, n/N1: 3/84
  Participants with postbaseline Bilirubin Total (umol/L) >=1.5 * ULN, (%): (1.2) %
  Participants with postbaseline Bilirubin Total (umol/L) >=1.5 * ULN, n/N1: 1/84
  Participants with postbaseline Bilirubin Total (umol/L) >=2 * ULN, n/N1: 0
  Participants with postbaseline Bilirubin Total (umol/L) >=3 * ULN, n/N1: 0
  Participants with postbaseline Bilirubin Total (umol/L) >=5 * ULN, n/N1: 0
  Participants with postbaseline Bilirubin Total (umol/L) >=10 * ULN, n/N1: 0
  Participants with postbaseline Bilirubin Total (umol/L) >=20 * ULN, n/N1: 0
[1]; Atogepant 30 mg QD (N = 183)
  Participants with postbaseline Bilirubin Total (umol/L) >=1 * ULN, (%): (8.4) %
  Participants with postbaseline Bilirubin Total (umol/L) >=1 * ULN, n/N1: 15/179
  Participants with postbaseline Bilirubin Total (umol/L) >=1.5 * ULN, (%): (1.1) %
  Participants with postbaseline Bilirubin Total (umol/L) >=1.5 * ULN, n/N1: 2/179
  Participants with postbaseline Bilirubin Total (umol/L) >=2 * ULN, n/N1: 0
  Participants with postbaseline Bilirubin Total (umol/L) >=3 * ULN, n/N1: 0
  Participants with postbaseline Bilirubin Total (umol/L) >=5 * ULN, n/N1: 0
  Participants with postbaseline Bilirubin Total (umol/L) >=10 * ULN, n/N1: 0
  Participants with postbaseline Bilirubin Total (umol/L) >=20 * ULN, n/N1: 0
[1]; Atogepant 60 mg BID (N = 91)
  Participants with postbaseline Bilirubin Total (umol/L) >=1 * ULN, (%): (1.1) %
  Participants with postbaseline Bilirubin Total (umol/L) >=1 * ULN, n/N1: 1/88
  Participants with postbaseline Bilirubin Total (umol/L) >=1.5 * ULN, n/N1: 0
  Participants with postbaseline Bilirubin Total (umol/L) >=2 * ULN, n/N1: 0
  Participants with postbaseline Bilirubin Total (umol/L) >=3 * ULN, n/N1: 0
  Participants with postbaseline Bilirubin Total (umol/L) >=5 * ULN, n/N1: 0
  Participants with postbaseline Bilirubin Total (umol/L) >=10 * ULN, n/N1: 0
  Participants with postbaseline Bilirubin Total (umol/L) >=20 * ULN, n/N1: 0
[1]; Atogepant 60 mg QD (N = 186)
  Participants with postbaseline Bilirubin Total (umol/L) >=1 * ULN, (%): (4.4) %
  Participants with postbaseline Bilirubin Total (umol/L) >=1 * ULN, n/N1: 8/181
  Participants with postbaseline Bilirubin Total (umol/L) >=1.5 * ULN, (%): (1.1) %
  Participants with postbaseline Bilirubin Total (umol/L) >=1.5 * ULN, n/N1: 2/181
  Participants with postbaseline Bilirubin Total (umol/L) >=2 * ULN, n/N1: 0
  Participants with postbaseline Bilirubin Total (umol/L) >=3 * ULN, n/N1: 0
  Participants with postbaseline Bilirubin Total (umol/L) >=5 * ULN, n/N1: 0
  Participants with postbaseline Bilirubin Total (umol/L) >=10 * ULN, n/N1: 0
  Participants with postbaseline Bilirubin Total (umol/L) >=20 * ULN, n/N1: 0
[2]
  time to maximum plasma concentrations: ≤ 2 h
[2]; plasma, po
  half-life: ~11 h
[3]; 60 mg once daily, 40 weeks
  deaths observed: No deaths
[3]; [5]
  TEAE by Preferred Term: Corona virus infection: 15 (2.2) n (%)
  TEAE by Preferred Term: Influenza: 17 (2.5) n (%)
[3]; atogepant 60 mg once daily, 40 weeks, Safety Population N = 685
  Deaths, participants: (0.0) %
[4]; 52-week open-label, atogepant 60 mg QD or standard of care, safety population
  Death, n (%): (0.4) %
[4]; atogepant 60 mg QD
  deaths reported (considered not related to atogepant): Two
